Measurements taken from US12404289B2 (Gilead Sciences, Inc., priority 2020, dated 2025).
Like-named read-outs stand apart in the source and are kept apart here.

Experiments:
Assay type in all cases: cell-based
SARS-CoV-2 = SARS-CoV-2 antiviral assay (A549-hACE2, Nano luciferase); conditions: A549-hACE2 cells, SARS-CoV2-Nano, MOI 0.025, 48 h, Table 4, read-out: EC50 SARS CoV2
[1] = system: Recombinant respiratory syncytial virus expressing the firefly luciferase protein (RSV-Fluc); assay: microbe, parasite or virus in culture; conditions: Table 4
[2] = system: Respiratory syncytial virus (RSV) strain A2; assay: Hep-2 RSV2 384-well assay (EC50-HEP2-384); conditions: HEp-2 cells, RSV A2, MOI=4, 4 days
[3] = system: Respiratory syncytial virus recombinant with luciferase (RSV-Luc5); assay: microbe, parasite or virus in culture
[4] = system: Respiratory syncytial virus (RSV) strain A2; assay: RSV antiviral assay (HEp-2, 96 well)
[5] = CC50 assay (cytopathology in HEp-2 cells); conditions: human, HEp-2 cells, 4 days, CellTiter-Glo, read-out: RSV CC50
Description: The cytopathology of compounds in HEp-2 cells is determined in the following manner. HEp-2 cells are suspended in DMEM+GlutaMAX (supplemented with 10% FBS and 1% Penicillin/Streptomycin) and seeded into 96 well plates (3×10^3/well). After a 4-hour incubation at 37° C.+5% CO2, three-fold serial dilutions of compounds are added to each well using an HP D300e digital dispenser. The cells are then incubated for 4 days at 37° C. and 5% CO2. The final volume in each well is 200 μL. Untreated wells are included as controls for 100% cell viability, while compounds treated with 5 uM puromycin are included as controls for 0% viability. Following the incubation, 100 μL of culture supernatant is removed from each well and replaced with 100 μL of CellTiter-Glo reagent (Promega, Madison, WI, Cat #G7573). The plates are then rocked for 2 minutes followed by a 10-minute incubation at 25° C. Compound-induced cytopathic effect is then assessed by measuring luminescence signal using and Envision plate reader. Values are normalized to the untreated DMSO and puromycin-treated controls (as 100% and 0% viability, respectively) and data is fit using non-linear regression analysis using XLfit4. The CC50 value for each compound is then determined as the concentration reducing cell viability by 50%.

[6] = Severe acute respiratory syndrome coronavirus 2, 48 h
[7] = human respiratory syncytial virus, NHBE, 72 h, read-out: EC50 RSVFluc NHBE 96, NHBE cells, RSV-Fluc, MOI of 0.1, three days, 96 well
[8] = human respiratory syncytial virus, HEp-2, 96 h, Table 3
[9] = human respiratory syncytial virus, HEp-2, 72 h, read-out: EC50 RSVFluc-Hep2 384, HEp-2 cells, RSV-Luc5, MOI=0.5, 3 days, 384 well, Table 3
[10] = human respiratory syncytial virus, HEp-2, 96 h, read-out: EC50-RSV-HEP-2-96, HEp-2 cells, RSV A2, MOI=4, 4 days, 96 well, Table 2
[11] = human respiratory syncytial virus, HEp-2, 96 h, read-out: EC50-RSV-HEP-2-96, HEp-2 cells, RSV A2, MOI=4, 4 days, 96 well, CellTiter-Glo, Table 1
[12] = read-out: EC50 RSVFluc-Hep2 384, HEp-2 cells, RSV-Luc5, MOI=0.5, 3 days, 384 well, Table 3
[13] = read-out: EC50 RSVFluc NHBE 96, NHBE cells, RSV-Fluc, MOI of 0.1, three days, 96 well
[14] = read-out: EC50 RSV HEP2 96, HEp-2 cells, RSV A2, MOI=4, 4 days, 96 well, Table 3

Row | Structure (SMILES) | EC50 (SARS-CoV-2; [6]) [nM] | EC50 [1, 7] [nM] | EC50 [2, 8] [nM] | EC50 [3, 9] [nM] | other results
1 | CC(=O)O[C@H]1[C@@H](OC(C)=O)[C@](C#N)(c2ccc3c(N)ncnn23)O[C@@H]1COP(=O)(N[C@@H](C)C(=O)OC1CC2(CCC2)C1)Oc1ccccc1 (stereo partly drawn) [Example 45, (2R,3R,4R,5R)-2-(4-aminopyrrolo[2,1-f][1,2,4]triazin-7-yl)-2-cyano-5-((((((S)-1-oxo-1-(spiro[3.3]heptan-2-yloxy)propan-2-yl)amino)(phenoxy)phosphoryl)oxy)methyl)tetrahydrofuran-3,4-diyl Diacetate] | 105 | 5.29 | 31.1 | 19 | 
2 | CCOC(=O)[C@H](C)NP(=O)(OC[C@H]1O[C@@](C#N)(c2ccc3c(N)ncnn23)[C@H](O)[C@@H]1O)Oc1ccccc1 (stereo partly drawn) |  |  |  |  | EC50 [4, 10]: 296 nM; CC50 at 4 days ([5]; Table 2): > 70 µM
3 | CCC(CC)COC(=O)[C@H](C)NP(=O)(OC[C@H]1O[C@@](C#N)(c2ccc3c(N)ncnn23)[C@H](O)[C@@H]1O)Oc1ccc(C(C)(C)C)cc1 (single isomer, unassigned) [Example 13a] | 181 | 5.92 |  |  | EC50 ([2]; Table 1): 91.2 nM; EC50 ([3]; human respiratory syncytial virus, HEp-2, 72 h, read-out: EC50 RSVFluc-Hep2 384, HEp-2 cells, RSV-Luc5, MOI=0.5, 3 days, 384 well, One-Glo, Table 1): 52.1 nM
4 | CC(=O)O[C@H]1[C@@H](OC(C)=O)[C@](C#N)(c2ccc3c(N)ncnn23)O[C@@H]1CO[P@@](=O)(N[C@@H](C)C(=O)OC(C)C)Oc1ccccc1 [Example 9, (2R,3R,4R,5R)-2-(4-aminopyrrolo[2,1-f][1,2,4]triazin-7-yl)-2-cyano-5-((((S)—(((S)-1-isopropoxy-1-oxopropan-2-yl)amino)(phenoxy)phosphoryl)oxy)methyl) tetrahydrofuran-3,4-diyl Diacetate] |  |  |  |  | EC50 [4, 11]: 228 nM; CC50 at 4 days ([5]; Table 1): > 50 µM
5 | CCOC(=O)[C@H](C)N[P@](=O)(OC[C@H]1O[C@@](C#N)(c2ccc3c(N)ncnn23)[C@H](OC(=O)C(C)C)[C@@H]1OC(=O)C(C)C)Oc1ccccc1 [Example 10, (2R,3R,4R,5R)-2-(4-aminopyrrolo[2,1-f][1,2,4]triazin-7-yl)-2-cyano-5-((((((S)-1-ethoxy-1-oxopropan-2-yl)amino)(phenoxy)phosphoryl)oxy)methyl)tetrahydrofuran-3,4-diyl bis(2-methylpropanoate)] |  |  |  |  | EC50 [4, 11]: 52.9 nM; CC50 at 4 days ([5]; Table 1): 10.3 µM
6 | CC(=O)O[C@H]1[C@@H](OC(C)=O)[C@](C#N)(c2ccc3c(N)ncnn23)O[C@@H]1COP(=O)(N[C@@H](C)C(=O)OCC1CC1)Oc1ccc(C(C)(C)C)cc1 (single isomer, unassigned) [Example 102a] | 155 | 8.46 | 32 |  | EC50 [3, 12]: 8.68 nM
7 | C[C@H](NP(=O)(OC[C@H]1O[C@@](C#N)(c2ccc3c(N)ncnn23)[C@H](O)[C@@H]1O)Oc1ccccc1)C(=O)OC1CCC1 (stereo partly drawn) |  |  |  |  | EC50 [4, 10]: 75.1 nM; CC50 at 4 days ([5]; Table 2): 34.2 µM
8 | CC(C)C(=O)O[C@H]1[C@@H](OC(=O)C(C)C)[C@](C#N)(c2ccc3c(N)ncnn23)O[C@@H]1COP(=O)(N[C@@H](C)C(=O)OC1CC2(CCC2)C1)Oc1ccccc1 (stereo partly drawn) [Example 46, (2R,3R,4R,5R)-2-(4-aminopyrrolo[2,1-f][1,2,4]triazin-7-yl)-2-cyano-5-((((((S)-1-oxo-1-(spiro[3.3]heptan-2-yloxy)propan-2-yl)amino)(phenoxy)phosphoryl)oxy)methyl)tetrahydrofuran-3,4-diyl bis(2-methylpropanoate)] | 237 | 7.79 | 52.3 | 19.3 | 
9 | CC(=O)O[C@H]1[C@@H](OC(C)=O)[C@](C#N)(c2ccc3c(N)ncnn23)O[C@@H]1COP(=O)(N[C@@H](C)C(=O)OCC(C)C)Oc1ccc(C(C)(C)C)cc1 (stereo partly drawn) [Example 137, (2R,3R,4R,5R)-2-(4-aminopyrrolo[2,1-f][1,2,4]triazin-7-yl)-5-((((4-(tert-butyl)phenoxy)(((S)-1-isobutoxy-1-oxopropan-2-yl)amino)phosphoryl)oxy)methyl)-2-cyanotetrahydrofuran-3,4-diyl Diacetate] | 67.4 | 4.82 | 31.5 | 22.1 | 
10 | CC(=O)O[C@H]1[C@@H](OC(C)=O)[C@](C#N)(c2ccc3c(N)ncnn23)O[C@@H]1COP(=O)(N[C@@H](C)C(=O)OC1CC2(CCC2)C1)Oc1ccccc1 (single isomer, unassigned) [Example 45b] |  |  |  |  | EC50 (SARS-CoV-2): 56.9 nM; EC50 [1, 13]: 10.3 nM; EC50 ([2]; Table 3): 23.9 nM; EC50 [3, 12]: 6.87 nM
11 | CCC(CC)COC(=O)[C@H](C)NP(=O)(OC[C@H]1O[C@@](C#N)(c2ccc3c(N)ncnn23)[C@H](O)[C@@H]1O)Oc1ccc(C(C)(C)C)cc1 (single isomer, unassigned) [Example 13b] |  |  |  |  | EC50 (SARS-CoV-2): 174 nM; EC50 [1, 13]: 6.86 nM; EC50 ([2]; Table 1): 33.4 nM; EC50 ([3]; read-out: EC50 RSVFluc-Hep2 384, HEp-2 cells, RSV-Luc5, MOI=0.5, 3 days, 384 well, One-Glo, Table 1): 26.7 nM
12 | CC(=O)O[C@H]1[C@@H](OC(C)=O)[C@](C#N)(c2ccc3c(N)ncnn23)O[C@@H]1COP(=O)(N[C@@H](C)C(=O)OC1CC(C)(C)C1)Oc1ccc(C(C)(C)C)cc1 (stereo partly drawn) [Example 96, (2R,3R,4R,5R)-2-(4-aminopyrrolo[2,1-f][1,2,4]triazin-7-yl)-5-((((4-(tert-butyl)phenoxy)(((S)-1-(3,3-dimethylcyclobutoxy)-1-oxopropan-2-yl)amino)phosphoryl)oxy)methyl)-2-cyanotetrahydrofuran-3,4-diyl Diacetate] | 95.9 | 5.48 | 39.9 | 30.2 | 
13 | CCC(CC)COC(=O)[C@H](C)NP(=O)(OC[C@H]1O[C@@](C#N)(c2ccc3c(N)ncnn23)[C@H](OC(C)=O)[C@@H]1OC(C)=O)Oc1cccc2ccccc12 (single isomer, unassigned) [Example 78b] |  | 5.67 | 75.6 | 33.8 | EC50 (SARS-CoV-2): 20 nM; EC50 [4, 14]: 21 nM
14 | CC(=O)O[C@H]1[C@@H](OC(C)=O)[C@](C#N)(c2ccc3c(N)ncnn23)O[C@@H]1COP(=O)(N[C@@H](C)C(=O)OC1CC(C)(C)C1)Oc1ccc(C(C)(C)C)cc1 (single isomer, unassigned) [Example 96a] | 198 |  | 26.5 | 21.2 | EC50 [1, 13]: 8.53 nM
15 | CC(=O)O[C@H]1[C@@H](OC(C)=O)[C@](C#N)(c2ccc3c(N)ncnn23)O[C@@H]1COP(=O)(N[C@@H](C)C(=O)OC1CC2(CCC2)C1)Oc1cccc2ccccc12 (single isomer, unassigned) [Example 83b] |  |  | 27.9 |  | EC50 (SARS-CoV-2): 32.8 nM; EC50 [4, 14]: 7.32 nM; EC50 [1, 13]: 7.12 nM; EC50 [3, 12]: 20.4 nM
16 | CC(=O)O[C@H]1[C@@H](OC(C)=O)[C@](C#N)(c2ccc3c(N)ncnn23)O[C@@H]1COP(=O)(N[C@@H](C)C(=O)OC1CC2(CCC2)C1)Oc1ccccc1 (single isomer, unassigned) [Example 45a] | 72.8 | 7.29 |  |  | EC50 ([2]; Table 3): 60.4 nM; EC50 [3, 12]: 22.7 nM
17 | C[C@H](NP(=O)(OC[C@H]1O[C@@](C#N)(c2ccc3c(N)ncnn23)[C@H](O)[C@@H]1O)Oc1ccccc1)C(=O)OC1CC2(CCC2)C1 (stereo partly drawn) [Example 44, spiro[3.3]heptan-2-yl ((((2R,3S,4R,5R)-5-(4-aminopyrrolo[2,1-f][1,2,4]triazin-7-yl)-5-cyano-3,4-dihydroxytetrahydrofuran-2-yl)methoxy)(phenoxy)phosphoryl)-L-alaninate] | 104 | 9.47 | 56 | 18.3 | 
18 | CC(=O)O[C@H]1[C@@H](OC(C)=O)[C@](C#N)(c2ccc3c(N)ncnn23)O[C@@H]1COP(=O)(N[C@@H](C)C(=O)OC1CC(C)(C)C1)Oc1ccc(C(C)(C)C)cc1 (single isomer, unassigned) [Example 96b] |  |  |  |  | EC50 (SARS-CoV-2): 276 nM; EC50 [1, 13]: 25.1 nM; EC50 ([2]; Table 3): 27.9 nM; EC50 [3, 12]: 22.5 nM
